According to patent publication US20240327382A1 (ALMAC DISCOVERY LIMITED, priority 2021, published 2024):

Target: T1, Full-length USP19 (Homo sapiens, UniProt O94966)
T1 construct: Full-length USP19 was purchased from Boston Biochem (E-576); purchased Boston Biochem E-576
T1 sequence (O94966 1-1318): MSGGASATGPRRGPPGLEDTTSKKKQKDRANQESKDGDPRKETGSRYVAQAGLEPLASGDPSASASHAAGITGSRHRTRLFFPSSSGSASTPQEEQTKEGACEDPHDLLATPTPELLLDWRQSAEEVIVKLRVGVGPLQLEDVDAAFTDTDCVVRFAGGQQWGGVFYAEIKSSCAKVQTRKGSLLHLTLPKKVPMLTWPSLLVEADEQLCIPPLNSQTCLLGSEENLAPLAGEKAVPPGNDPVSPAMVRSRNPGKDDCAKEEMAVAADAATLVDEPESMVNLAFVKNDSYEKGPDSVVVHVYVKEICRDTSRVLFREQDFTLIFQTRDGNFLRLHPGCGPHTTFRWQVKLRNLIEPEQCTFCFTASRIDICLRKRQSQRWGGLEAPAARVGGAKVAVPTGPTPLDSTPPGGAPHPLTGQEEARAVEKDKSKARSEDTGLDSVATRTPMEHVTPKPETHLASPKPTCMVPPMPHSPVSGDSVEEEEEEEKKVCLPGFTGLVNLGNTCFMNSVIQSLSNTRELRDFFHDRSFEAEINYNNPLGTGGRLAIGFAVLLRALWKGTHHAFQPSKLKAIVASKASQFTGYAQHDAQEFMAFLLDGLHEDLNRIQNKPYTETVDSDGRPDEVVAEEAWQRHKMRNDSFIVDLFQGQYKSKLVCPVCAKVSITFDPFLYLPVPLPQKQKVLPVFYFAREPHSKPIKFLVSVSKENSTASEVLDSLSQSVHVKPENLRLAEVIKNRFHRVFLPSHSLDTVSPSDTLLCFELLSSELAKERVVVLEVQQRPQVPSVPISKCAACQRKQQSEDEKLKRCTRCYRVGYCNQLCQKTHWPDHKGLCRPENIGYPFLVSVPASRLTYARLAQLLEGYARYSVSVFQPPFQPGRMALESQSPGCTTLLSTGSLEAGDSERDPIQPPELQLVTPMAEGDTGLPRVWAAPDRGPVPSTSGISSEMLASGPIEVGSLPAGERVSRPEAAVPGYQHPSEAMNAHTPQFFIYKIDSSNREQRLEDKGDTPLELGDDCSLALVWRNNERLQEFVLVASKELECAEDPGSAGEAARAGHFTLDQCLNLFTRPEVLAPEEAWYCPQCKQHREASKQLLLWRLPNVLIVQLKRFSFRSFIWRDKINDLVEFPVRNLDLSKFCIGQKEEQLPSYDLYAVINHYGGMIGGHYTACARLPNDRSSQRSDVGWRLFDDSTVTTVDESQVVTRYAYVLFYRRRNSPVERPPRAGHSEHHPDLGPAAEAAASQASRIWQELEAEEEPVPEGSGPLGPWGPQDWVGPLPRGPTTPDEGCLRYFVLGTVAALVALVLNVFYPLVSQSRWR
Assay: USP19 fluorescence polarisation (FP) assay, Ubiquitin-Lys-TAMRA substrate
Type: biochemical
Details: average of at least two duplicate experiments
Procedure: USP19 activity was determined in a fluorescence polarisation (FP) homogeneous assay using the isopeptide Ubiquitin-Lys-TAMRA substrate (either AUB-101, Almac Sciences Scotland Limited, or U-558, Boston Biochem, both of which gave identical results). Full-length USP19 was purchased from Boston Biochem (E-576). Unless otherwise stated, all other reagents were purchased from Sigma. Enzymatic reactions were conducted in black flat bottom polystyrene 384-well plates (Nunc) and 30 μL total volume. USP19 (2.5 nM, 10 μL) was incubated in assay buffer (50 mM HEPES (pH 7.4), 150 mM NaCl, 5 mM DTT, 0.05% BSA (w/v), 0.05% CHAPS) in the presence or absence of inhibitor (10 μL). Inhibitors were stored as 10 mM DMSO stocks in an inert environment (low humidity, dark, low oxygen, rt) using the StoragePod® system (Roylan Developments) and serial dilutions were prepared in buffer just prior to the assay (from 200 μM to 2 μM, 8-18 data point curve). Following incubation at RT for 30 min, the enzymatic reactions were initiated by dispensing the Ub substrate (500 nM, 10 μL). FP was measured every 15 min over a period of 90 min (within the linear range of the assay) using a Synergy 4 plate reader (BioTek) exciting at 530 nm and measuring the amount of parallel and perpendicular light at 575 nm. The FP signal was subsequently normalised to the no compound control. Data were plotted and fitted, and the concentrations resulting in 50% inhibition (IC50) were calculated using the non-linear regression curve fitting model using GraphPad (Prism). IC50 values for the inhibitors of the invention are compiled in Tables 1 and 3 and represent the average of at least two duplicate experiments.

| Compound | IC50 [nM] |
| --- | --- |
| O=C(N1CCC(Cn2cnc(-c3ccccc3)cc2=O)CC1)N1CCNC[C@H]1c1ccccc1 [Example 1, (R)-6-Phenyl-3-((1-(2-phenylpiperazine-1-carbonyl)piperidin-4-yl)methyl)pyrimidin-4(3H)-one] | 100 to 1000 |
| CN(C)[C@@H]1CCN(C(=O)N2CC[C@@H](Cn3ccc(-c4ccccc4)cc3=O)C3(CCCC3)C2)[C@H](c2ccccc2)C1 [Example 46, 1-(((R)-7-((2S,4R)-4-(Dimethylamino)-2-phenylpiperidine-1-carbonyl)-7-azaspiro[4.5]decan-10-yl)methyl)-4-phenylpyridin-2(1H)-one] | 10 to 100 |
| CN(C)[C@@H]1CCN(C(=O)N2CC[C@@H](Cn3cnc4ccc(F)cc4c3=O)C3(CCCC3)C2)[C@H](c2cc(F)ccc2F)C1 [Example 174, 3-(((R)-7-((2S,4R)-2-(2,5-Difluorophenyl)-4-(dimethylamino)piperidine-1-carbonyl)-7-azaspiro[4.5]decan-10-yl)methyl)-6-fluoroquinazolin-4(3H)-one] | < 10 |
| CN[C@@H]1CCN(C(=O)N2CC[C@@H](Cn3cnc(-c4ccccc4)cc3=O)C3(CCCC3)C2)[C@H](c2cccc(F)c2)C1 [Example 63, 3-(((R)-7-((2S,4R)-2-(3-Fluorophenyl)-4-(methylamino)piperidine-1-carbonyl)-7-azaspiro[4.5]decan-10-yl)methyl)-6-phenylpyrimidin-4(3H)-one] | < 10 |
| N[C@@H]1CCN(C(=O)N2CCC(Cn3cnc4cc(F)c(F)cc4c3=O)C3(CCCC3)C2)[C@H](c2ccccc2)C1 (stereo partly drawn) [Example 37, 3-((7-((2S,4R)-4-Amino-2-phenylpiperidine-1-carbonyl)-7-azaspiro[4.5]decan-10-yl)methyl)-6,7-difluoroquinazolin-4(3H)-one] | < 10 |
| CN[C@@H]1CCN(C(=O)N2CC[C@@H](Cn3cnc(-c4ccccc4F)cc3=O)C3(CCCC3)C2)[C@H](c2cccc(F)c2F)C1 [Example 140, 3-(((R)-7-((2S,4R)-2-(2,3-Difluorophenyl)-4-(methylamino)piperidine-1-carbonyl)-7-azaspiro[4.5]decan-10-yl)methyl)-6-(2-fluorophenyl)pyrimidin-4(3H)-one] | < 10 |
| O=C(N1CC[C@@H](Cn2cnc(-c3ccccc3)cc2=O)C2(CCCC2)C1)N1CCNC[C@H]1c1ccccc1 (single isomer, unassigned) [Example 14] | < 10 |
| CO[C@@]1(Cn2ccc(-c3ccccc3)cc2=O)CCN(C(=O)N2CC[C@@H](N)C[C@H]2c2ccccc2)CC12CCCC2 [Example 73, 1-(((S)-7-((2S,4R)-4-Amino-2-phenylpiperidine-1-carbonyl)-10-methoxy-7-azaspiro[4.5]decan-10-yl)methyl)-4-phenylpyridin-2(1H)-one] | < 10 |
| N[C@@H]1CCN(C(=O)N2CC[C@@H](Cn3cnc(-c4ccccc4)cc3=O)C3(CCCC3)C2)[C@H](c2cc(F)ccc2F)C1 [Example 86, 3-(((R)-7-((2S,4R)-4-amino-2-(2,5-difluorophenyl)piperidine-1-carbonyl)-7-azaspiro[4.5]decan-10-yl)methyl)-6-phenylpyrimidin-4(3H)-one] | < 10 |
| CC(C)(C)OC(=O)CN[C@@H]1CCN(C(=O)N2CC[C@@H](Cn3cnc(-c4ccccc4)cc3=O)C3(CCCC3)C2)[C@H](c2cc(F)ccc2F)C1 [Example 154, tert-Butyl ((2S,4R)-2-(2,5-difluorophenyl)-1-((R)-10-((6-oxo-4-phenylpyrimidin-1(6H)-yl)methyl)-7-azaspiro[4.5]decane-7-carbonyl)piperidin-4-yl)glycinate] | < 10 |
| CN[C@@H]1CCN(C(=O)N2CC[C@@H](Cn3cnc(-c4ccccc4OC)cc3=O)C3(CCCC3)C2)[C@H](c2ccccc2F)C1 [Example 103, 3-(((R)-7-((2S,4R)-2-(2-Fluorophenyl)-4-(methylamino)piperidine-1-carbonyl)-7-azaspiro[4.5]decan-10-yl)methyl)-6-(2-methoxyphenyl)pyrimidin-4(3H)-one] | < 10 |
| CN[C@@H]1CCN(C(=O)N2CC[C@@H](CN3CCC(c4ccccc4OC)=CC3=O)C3(CCCC3)C2)[C@H](c2ccc(F)cc2F)C1 (racemic) [Example 127, 1-(((R)-7-((2S,4R)-2-(2,4-Difluorophenyl)-4-(methylamino)piperidine-1-carbonyl)-7-azaspiro[4.5]decan-10-yl)methyl)-4-(2-methoxyphenyl)-5,6-dihydropyridin-2(1H)-one and 1-(((S)-7-((2S,4R)-2-(2,4-Difluorophenyl)-4-(methylamino)piperidine-1-carbonyl)-7-azaspiro[4.5]decan-10-yl)methyl)-4-(2-methoxyphenyl)-5,6-dihydropyridin-2(1H)-one] | < 10 |
| CC(=O)N[C@@H]1CCN(C(=O)N2CC[C@@H](Cn3cnc4ccc(F)cc4c3=O)C3(CCCC3)C2)[C@H](c2cc(F)ccc2F)C1 [Example 172, N-((2S,4R)-2-(2,5-Difluorophenyl)-1-((R)-10-((6-fluoro-4-oxoquinazolin-3(4H)-yl)methyl)-7-azaspiro[4.5]decane-7-carbonyl)piperidin-4-yl)acetamide] | < 10 |
| O=C(O)CN[C@@H]1CCN(C(=O)N2CC[C@@H](Cn3cnc(-c4ccccc4)cc3=O)C3(CCCC3)C2)[C@H](c2ccccc2)C1 [Example 106, Sodium ((2S,4R)-1-((R)-10-((6-Oxo-4-phenylpyrimidin-1(6H)-yl)methyl)-7-azaspiro[4.5]decane-7-carbonyl)-2-phenylpiperidin-4-yl)glycinate] | < 10 |
| O=C(N1CC[C@@H](Cn2ccc(-c3ccccc3)cc2=O)C2(CCCC2)C1)N1CC[C@H](NC2CS(=O)(=O)C2)C[C@H]1c1ccccc1 [Example 51, 1-(((R)-7-((2S,4S)-4-((1,1-Dioxidothietan-3-yl)amino)-2-phenylpiperidine-1-carbonyl)-7-azaspiro[4.5]decan-10-yl)methyl)-4-phenylpyridin-2(1H)-one] | 100 to 1000 |
| CN[C@@H]1CCN(C(=O)N2CC[C@@H](Cn3cnc(-c4ccccc4F)cc3=O)C3(CCCC3)C2)[C@H](c2ccc(F)cc2F)C1 [Example 141, 3-(((R)-7-((2S,4R)-2-(2,4-Difluorophenyl)-4-(methylamino)piperidine-1-carbonyl)-7-azaspiro[4.5]decan-10-yl)methyl)-6-(2-fluorophenyl)pyrimidin-4(3H)-one] | < 10 |
| COCCN[C@@H]1CCN(C(=O)N2CC[C@@H](Cn3cnc(-c4ccccc4)cc3=O)C3(CCCC3)C2)[C@H](c2cccc(F)c2)C1 [Example 195, 3-(((R)-7-((2S,4R)-2-(3-Fluorophenyl)-4-((2-methoxyethyl)amino)piperidine-1-carbonyl)-7-azaspiro[4.5]decan-10-yl)methyl)-6-phenylpyrimidin-4(3H)-one] | < 10 |
| CCN[C@@H]1CCN(C(=O)N2CC[C@@H](Cn3ccc(-c4ccccc4)cc3=O)C3(CCCC3)C2)[C@H](c2cc(F)ccc2F)C1 [Example 180, 1-(((R)-7-((2S,4R)-2-(2,5-Difluorophenyl)-4-(ethylamino)piperidine-1-carbonyl)-7-azaspiro[4.5]decan-10-yl)methyl)-4-phenylpyridin-2(1H)-one] | < 10 |
